Results from patent US20240299562A1 (priority 2020, published 2024).
Read-outs that look alike come from different tables or passages of the source. *1 amine or outer side, *2 acyl side, *3 side chain or, on linkers, in order; H or OH if unused. Where a SMILES comes first, the peptide text is derived from it. [ ]: non-standard residue; d: D form. The star is where a group is joined. X1 = CO[C@@H](C1CCCN1[*:1])[C@@H](C)C(=O)[*:2]; Dil = CC[C@H](C)[C@H](NC)[C@@H](CC(=O)O)OC; PABC = O=C(OCc1ccc(N[*:1])cc1)[*:2]; Phosphonoacetyl = O=C(CP(=O)(O)O)*; X2 = C[C@@H](N*)[C@@H](O)c1ccccc1; NMeV = CN[C@H](C(=O)O)C(C)C

Legend:
MIA PaCa-2 cells = assay: WST-1 cell viability, MIA PaCa-2 pancreatic cancer cells; assay type: cell-based
Experimental: (§1) All commercial cell lines were purchased at ATCC (LGC Standards SARL, France). Cells were seeded in 96-well plates according to their optimal seeding density, varying between 5.000 and 10.000 cells/well. After attachment overnight, 10-point serial titrations (1:5) were prepared in their equivalent complete media as recommended by ATCC, starting from the 10 mM stock solutions. For doxorubicin comprising prodrugs dilutions started from 100 μM, while for the parent compound doxorubicin dilutions started at 10 μM. […] Seventy-two hours later, compounds were removed together with the supernatants and cells were washed once with PBS to remove excess drugs.
(§2) The WST-1 assay for cell proliferation and viability (Roche, Switzerland) was performed according to manufacturer's protocol. Absorbances were measured at 4 hrs using a Perkin Elmer Ensight multiplate reader, equipped with Kaleido 2.0 software (Perkin Elmer, USA). Cell viability was expressed as a percentage compared to non-treated cells. Absolute IC50 values were extrapolated from a non-linear fitting following the Sigmoidal-4PL regression method using Graphpad Prism 7.0. Likewise, maximal efficacy was determined as 100% minus the cell viability determined when cells are incubated in the presence of a compound. For instance, if 20% of the cells survive incubation in the presence of a compound, then the maximal efficacy of that compound is 100%-20%=80%.
(§3) Selectivity indices (SI) were defined as the ratio of the concentration of drug required to kill 50% of the cells in normal (control, non-cancer) cells, divided by the concentration required to exert the same efficacy in tumor cells: SI=IC50 (control cell)/IC50 (cancer cell), or SI=^HME-1IC50/cancer IC50.

U-87 MG cells = assay: WST-1 cell viability, U-87 MG glioblastoma cells; assay type: cell-based; details: for IC50: read-out: Absolute IC50
Experimental: as §1, §2, §3

HCT-116 cells = assay: WST-1 cell viability, HCT-116 colorectal cancer cells; assay type: cell-based
Experimental: as §1, §2, §3

A2780 Cp cells = assay: WST-1 cell viability, A2780 CpR (cisplatin resistant) ovarian cancer cells; assay type: cell-based
Experimental: as §1, §2, §3

A-172 cells = assay: WST-1 cell viability, A-172 glioblastoma cells; assay type: cell-based; details: for IC50: read-out: Absolute IC50
Experimental: as §1, §2, §3

A2058 cells = assay: WST-1 cell viability, A2058 melanoma cells; assay type: cell-based; details: for IC50: read-out: Absolute IC50
Experimental: as §1, §2, §3

[1] = system: U87 MG glioblastoma cells subcutaneously implanted in nude NMRI mice; assay: In vivo activity of PhAc-ALLP-Dox on U87 MG glioblastoma xenograft; design: species or system mouse; details: 5 mg/kg iv, once per week
Experimental: The in vivo efficacy of PhAc-ALLP-Dox was tested in a mouse GBM model. U87 MG glioblastoma cells were subcutaneously (SC) implanted in nude NMRI mice. In total, 32 adult (9-10 weeks old) nude female NMRI mice (Janvier, France) were subjected to SC tumor cell grafting in the right flank. In total, 5×10^6 U87 MG cells resuspended in PBS plus Matrigel (1:1) were injected in 200 uL final volume. As soon as the tumors were palpable and reached the volume of 200 mm3 the treatment was started. At day zero, mice were randomly divided into 4 groups, based on the tumor volume, in order to have the following experimental sub-cohorts: • control group receiving the vehicle (PBS pH7.2) with a dose of 5 ml/kg, intravenously (iv), once per week (QW); • PhAc-ALLP-Dox (30 mg/kg iv, QW); • PhAc-ALGP-Dox (154 mg/kg iv, QW); • Dox (5 mg/kg iv, QW).
Treatments were performed once per week for a total of four tail vein administrations/injections (on days 1, 7, 14 and 21). One extra week of observation followed the active treatment phase. During the experiment, tumor volume was measured two times a week and was assessed three-dimensionally with a digital caliper (Mitutoyo, Illinois) using the following formula:
V=4/3π×[(d/2)^2×(D/2)], where d is the minor tumor axis and D is the major tumor axis.

MDA-MB-468 cells = assay: WST-1 cell viability, MDA-MB-468 triple negative breast cancer cells; assay type: cell-based
Experimental: as §1, §2, §3

[2] = WST-1 cell viability, normal HME-1 cells; assay type: cell-based, human; details: human
Experimental: as §1, §2, §3

HME-1 cells = assay: WST-1 cell viability, normal HME-1 cells; assay type: cell-based, human; details: for IC50: read-out: Absolute IC50
Experimental: as §1, §2, §3

MDA-MB-231 cells = assay: WST-1 cell viability, MDA-MB-231 triple negative breast cancer cells; assay type: cell-based; details: for IC50: read-out: Absolute IC50
Experimental: as §1, §2, §3

DU145 cells = assay: WST-1 cell viability, DU145 prostate cancer cells; assay type: cell-based
Experimental: as §1, §2, §3

NCI-1299 cells = assay: WST-1 cell viability, NCI-H1299 lung cancer cells; assay type: cell-based
Experimental: as §1, §2, §3

[3] = system: Human umbilical vein endothelial cells (HUVEC); assay: WST-1 cell viability, normal HUVEC cells; assay type: cell-based; details: 72 hrs
Experimental: as §1, §2, §3

## COc1cccc2c1C(=O)c1c(O)c3c(c(O)c1C2=O)C[C@@](O)(C(=O)CO)C[C@@H]3O[C@H]1C[C@H](N)[C@H](O)[C@H](C)O1 [Doxorubicin, reference compound]
MIA PaCa-2 cells; Homo sapiens, MIA PaCa-2 (PaC), 72 hrs, WST-1 (Table 1), read-out: Absolute IC50
  IC50: 100 nM
MIA PaCa-2 cells; Homo sapiens, MIA PaCa-2 (PaC), 72 hrs, WST-1 (Table 2), read-out: Maximal efficacy, cytotoxicity (%) at 100 μM
  cytotoxicity at 100 µM: 94.4%
MIA PaCa-2 cells; MIA PaCa-2 (PaC) vs HME-1 (Table 3)
  SI = HME-1 IC50/cancer IC50: 0.44
U-87 MG cells; Homo sapiens, U-87 MG, 72 h, read-out: Maximal efficacy, cytotoxicity (%) at 100 μM
  cytotoxicity at 100 µM: 71.8%
U-87 MG cells; Homo sapiens, U-87 MG (GBM), 72 hrs, WST-1 (Table 1)
  IC50: 70 nM
U-87 MG cells; U-87 MG (GBM) vs HME-1 (Table 3)
  SI = HME-1 IC50/cancer IC50: 0.59
HCT-116 cells; HCT-116 (CrC) vs HME-1 (Table 3)
  SI = HME-1 IC50/cancer IC50: 0.36
HCT-116 cells; Homo sapiens, HCT-116 (CrC), 72 hrs, WST-1 (Table 1), read-out: Absolute IC50
  IC50: 120 nM
HCT-116 cells; Homo sapiens, HCT-116 (CrC), 72 hrs, WST-1 (Table 2), read-out: Maximal efficacy, cytotoxicity (%) at 100 μM
  cytotoxicity at 100 µM: 93.5%
A2780 Cp cells; A2780C/P, A2780 Cp (OvC), 72 hrs, WST-1 (Table 2), read-out: Maximal efficacy, cytotoxicity (%) at 100 μM
  cytotoxicity at 100 µM: 94.8%
A2780 Cp cells; A2780C/P, A2780 Cp (OvC, cisplatin resistant), 72 hrs, WST-1 (Table 1), read-out: Absolute IC50
  IC50: 80 nM
A2780 Cp cells; A2780 Cp (OvC) vs HME-1 (Table 3)
  SI = HME-1 IC50/cancer IC50: 0.57
A-172 cells; A-172 (GBM) vs HME-1 (Table 3)
  SI = HME-1 IC50/cancer IC50: 0.01
A-172 cells; Homo sapiens, A 172, 72 h, read-out: Maximal efficacy, cytotoxicity (%) at 100 μM
  cytotoxicity at 100 µM: 89.9%
A-172 cells; Homo sapiens, A-172 (GBM), 72 hrs, WST-1 (Table 1)
  IC50: 3360 nM
A2058 cells; A2058 (Melanoma) vs HME-1 (Table 3)
  SI = HME-1 IC50/cancer IC50: 0.11
A2058 cells; Homo sapiens, A2058, 72 h, read-out: Maximal efficacy, cytotoxicity (%) at 100 μM
  cytotoxicity at 100 µM: 97%
A2058 cells; Homo sapiens, A2058 (Melanoma), 72 hrs, WST-1 (Table 1)
  IC50: 410 nM
[1]
  Tumor growth: significantly reduced tumor growth
MDA-MB-468 cells; Homo sapiens, MDA-MB-468 (TNBC), 72 hrs, WST-1 (Table 1), read-out: Absolute IC50
  IC50: < 10 nM
MDA-MB-468 cells; Homo sapiens, MDA-MB-468 (TNBC), 72 hrs, WST-1 (Table 2), read-out: Maximal efficacy, cytotoxicity (%) at 100 μM
  cytotoxicity at 100 µM: 95.5%
MDA-MB-468 cells; MDA-MB-468 (TNBC) vs HME-1 (Table 3)
  SI = HME-1 IC50/cancer IC50: 12.64
[2]
  cytotoxicity at 72 h, 100 µM: 96.5%
HME-1 cells; HME-1 normal cells against themselves (Table 3)
  SI = HME-1 IC50/cancer IC50: 1.00
HME-1 cells; Homo sapiens, HME1, HME-1 normal cells, 72 hrs continuous drug exposure, WST-1 (Table 1)
  IC50: 40 nM
MDA-MB-231 cells; Homo sapiens, MDA-MB-231, 72 h, read-out: Maximal efficacy, cytotoxicity (%) at 100 μM
  cytotoxicity at 100 µM: 91.5%
MDA-MB-231 cells; Homo sapiens, MDA-MB-231 (TNBC), 72 hrs, WST-1 (Table 1)
  IC50: 120 nM
MDA-MB-231 cells; MDA-MB-231 (TNBC) vs HME-1 (Table 3)
  SI = HME-1 IC50/cancer IC50: 0.38
DU145 cells; DU145 (PrC) vs HME-1 (Table 3)
  SI = HME-1 IC50/cancer IC50: 1.55
DU145 cells; Homo sapiens, DU-145, DU145 (PrC), 72 hrs, WST-1 (Table 1), read-out: Absolute IC50
  IC50: 30 nM
DU145 cells; Homo sapiens, DU-145, DU145 (PrC), 72 hrs, WST-1 (Table 2), read-out: Maximal efficacy, cytotoxicity (%) at 100 μM
  cytotoxicity at 100 µM: 92.5%
NCI-1299 cells; Homo sapiens, NCI-H1299, NCI-1299 (NSCLC), 72 hrs, WST-1 (Table 1), read-out: Absolute IC50
  IC50: 30 nM
NCI-1299 cells; Homo sapiens, NCI-H1299, NCI-1299 (NSCLC), 72 hrs, WST-1 (Table 2), read-out: Maximal efficacy, cytotoxicity (%) at 100 μM
  cytotoxicity at 100 µM: 92.9%
NCI-1299 cells; NCI-1299 (NSCLC) vs HME-1 (Table 3)
  SI = HME-1 IC50/cancer IC50: 1.33

## CC[C@H](C)[C@@H]([C@@H](CC(=O)N1CCCC1[C@H](OC)[C@@H](C)C(=O)N[C@H](C)[C@@H](O)c1ccccc1)OC)N(C)C(=O)[C@@H](NC(=O)[C@H](C(C)C)N(C)C(=O)OCc1ccc(NC(=O)[C@@H]2CCCN2C(=O)[C@H](CC(C)C)NC(=O)[C@H](CC(C)C)NC(=O)[C@H](C)NC(=O)CP(=O)(O)O)cc1)C(C)C (stereo partly drawn) [PhAc-ALLP-PABC-MMAE] (Phosphonoacetyl-ALLP[PABC][NMeV]V[Dil][X1]-X2)
U-87 MG cells; U-87 MG (GBM), * towards HUVEC cells (Table 6)
  SI = HUVEC IC50 / cancer IC50: *2.4
U-87 MG cells; U-87 MG (GBM), ** towards hiPSCs (iAstro) (Table 6)
  SI = iAstro IC50 / cancer IC50: **>500
U-87 MG cells; U-87 MG (GBM), selectivity towards HME-1 cells (Table 6)
  SI = normal IC50 / cancer IC50: 0.1
U-87 MG cells; U-87 MG (GBM), 72 hrs, WST-1 (Table 4)
  IC50: 70 nM
U-87 MG cells; U-87 MG (GBM), 72 hrs, WST-1 (Table 5)
  Maximal efficacy: 86.6%
A-172 cells; A-172 (GBM), * towards HUVEC cells (Table 6)
  SI = HUVEC IC50 / cancer IC50: *1.9
A-172 cells; A-172 (GBM), ** towards hiPSCs (iAstro) (Table 6)
  SI = iAstro IC50 / cancer IC50: **>500
A-172 cells; A-172 (GBM), selectivity towards HME-1 cells (Table 6)
  SI = normal IC50 / cancer IC50: 0.1
A-172 cells; A-172 (GBM), 72 hrs, WST-1 (Table 4)
  IC50: 90 nM
A-172 cells; A-172 (GBM), 72 hrs, WST-1 (Table 5)
  Maximal efficacy: 97.4%
A-172 cells; GBM indication as a whole (A-172 and U-87 MG), vs HUVEC
  Selectivity index determined on HUVECs, GBM: 2.2
A-172 cells; GBM indication as a whole (A-172 and U-87 MG), vs iAstro
  Selectivity index towards hiPSC-derived astrocytes, GBM: > 10
A2058 cells; A2058 (Melanoma), selectivity towards HME-1 cells (Table 6)
  SI = normal IC50 / cancer IC50: 0.3
A2058 cells; A2058 (Melanoma), 72 hrs, WST-1 (Table 4)
  IC50: 30 nM
A2058 cells; A2058 (Melanoma), 72 hrs, WST-1 (Table 5)
  Maximal efficacy: 95.2%
HME-1 cells; HME-1 normal cells
  Toxicity compared to MMAE on mammary epithelial (HME-1) cells: not significantly different
HME-1 cells; HME-1 normal cells, 72 hrs, WST-1 (Table 4)
  IC50: 10 nM
HME-1 cells; HME-1 normal cells, 72 hrs, WST-1, cytotoxicity at highest concentration (Table 5)
  Maximal efficacy: 99.5%
MDA-MB-231 cells; MDA-MB-231 (TNBC), selectivity towards HME-1 cells (Table 6)
  SI = normal IC50 / cancer IC50: 0.2
MDA-MB-231 cells; MDA-MB-231 (TNBC), 72 hrs, WST-1 (Table 4)
  IC50: 40 nM
MDA-MB-231 cells; MDA-MB-231 (TNBC), 72 hrs, WST-1 (Table 5)
  Maximal efficacy: 77.6%
[3]; WST-1 (Table 4), read-out: Absolute IC50
  IC50: 170 nM
[3]; WST-1 (Table 5)
  Maximal efficacy: 98.1%
